From ChEMBL document CHEMBL1201862, “PubChem BioAssay data set” (2004)
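96-well plates; 48 h exposure; 5 concentrations. Endpoints by linear interpolation between flanking doses. Not reached: highest tested concentration assigned. GI50: concentration for 50% inhibition of growth.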 Activity calls are given as the source filed them. Cut-off read from the data, not from the text of the source: active = GI50 up to about 1.1 µM and inactive = higher.

Assays:
Experiment in all cases: NCI anticancer screen, dose series, 48 h
HT-29 = tested on: HT-29
MCF7 = tested on: MCF7
MDA-MB-231 = tested on: MDA-MB-231
OVCAR-4 = tested on: OVCAR-4
NCI-H460 = tested on: NCI-H460
T47D = tested on: T47D
A498 = tested on: A498
U-251 = tested on: U-251
MOLT-4 = tested on: MOLT-4
NCI-H522 = tested on: NCI-H522
CAKI-1 = tested on: CAKI-1
DU-145 = tested on: DU-145
NCI-H23 = tested on: NCI-H23
NCI/ADR-RES = tested on: NCI/ADR-RES
Hs-578T = tested on: Hs-578T
SW-620 = tested on: SW-620
BT-549 = tested on: BT-549
UO-31 = tested on: UO-31

SMILES	GI50 (HT-29)	GI50 (MCF7)	GI50 (MDA-MB-231)	GI50 (OVCAR-4)	GI50 (NCI-H460)	GI50 (T47D)	GI50 (A498)	GI50 (U-251)	GI50 (MOLT-4)	GI50 (NCI-H522)	GI50 (CAKI-1)	GI50 (DU-145)	GI50 (NCI-H23)	GI50 (NCI/ADR-RES)	GI50 (Hs-578T)	GI50 (SW-620)	GI50 (BT-549)	GI50 (UO-31)
CN(C)N1C(=O)S/C(=C\c2ccc([N+](=O)[O-])cc2)C1=O	> 100 µM (inactive)	> 100 µM (inactive)	> 100 µM (inactive)	> 100 µM (inactive)	> 100 µM (inactive)	65.5 µM (inactive)	> 100 µM (inactive)	51.5 µM (inactive)	> 100 µM (inactive)	> 100 µM (inactive)	> 100 µM (inactive)	> 100 µM (inactive)	> 100 µM (inactive)	> 100 µM (inactive)	> 100 µM (inactive)	–	–	–
N#Cc1c(-c2ccc([N+](=O)[O-])cc2)c(C#N)c(=O)n(NS(=O)(=O)c2ccccc2)c1O	> 100 µM (inactive)	> 100 µM (inactive)	> 100 µM (inactive)	> 100 µM (inactive)	> 100 µM (inactive)	–	> 100 µM (inactive)	> 100 µM (inactive)	> 100 µM (inactive)	> 100 µM (inactive)	> 100 µM (inactive)	–	–	> 100 µM (inactive)	–	> 100 µM (inactive)	> 100 µM (inactive)	–
CN(C)/N=N/c1ccc(NC=O)cc1	> 100 µM (inactive)	> 100 µM (inactive)	> 100 µM (inactive)	> 100 µM (inactive)	> 100 µM (inactive)	39.6 µM (inactive)	> 100 µM (inactive)	> 100 µM (inactive)	55.8 µM (inactive)	–	> 100 µM (inactive)	> 100 µM (inactive)	–	> 100 µM (inactive)	–	> 100 µM (inactive)	> 100 µM (inactive)	82.8 µM (inactive)
O=C1Nc2ccccc2C(=O)/C1=C/NC(=S)NCCc1ccccc1	> 100 µM (inactive)	> 100 µM (inactive)	> 100 µM (inactive)	> 100 µM (inactive)	> 100 µM (inactive)	> 100 µM (inactive)	–	> 100 µM (inactive)	4.03 µM (inactive)	–	> 100 µM (inactive)	> 100 µM (inactive)	> 100 µM (inactive)	> 100 µM (inactive)	–	> 100 µM (inactive)	> 100 µM (inactive)	> 100 µM (inactive)
O=c1cc(N2CCCC2)[nH]c(=O)n1-c1ccccc1	> 100 µM (inactive)	> 100 µM (inactive)	> 100 µM (inactive)	> 100 µM (inactive)	> 100 µM (inactive)	–	–	> 100 µM (inactive)	> 100 µM (inactive)	> 100 µM (inactive)	> 100 µM (inactive)	> 100 µM (inactive)	> 100 µM (inactive)	> 100 µM (inactive)	–	> 100 µM (inactive)	> 100 µM (inactive)	–
Oc1cn(-c2ccc(Cl)cc2)nc1-c1nnc(-c2ccccc2)o1	2.83 µM (inactive)	0.263 µM (active)	6.01 µM (inactive)	19.5 µM (inactive)	0.236 µM (active)	3.86 µM (inactive)	9.4 µM (inactive)	0.2 µM (active)	0.193 µM (active)	1.1 µM (active)	0.359 µM (active)	2.99 µM (inactive)	0.155 µM (active)	0.215 µM (active)	0.484 µM (active)	1.94 µM (inactive)	–	0.726 µM (active)
CC(=O)Nc1ccc(C(=O)NN2C(=O)C(Cl)C2c2cccc([N+](=O)[O-])c2)cc1 (configuration not stated)	> 100 µM (inactive)	–	–	–	> 100 µM (inactive)	–	–	> 100 µM (inactive)	> 100 µM (inactive)	> 100 µM (inactive)	–	–	> 100 µM (inactive)	–	–	> 100 µM (inactive)	–	> 100 µM (inactive)
